Results on 28 molecules are retold here after patent US11939314B2, “Quinolin-2-one derivatives” (MERCK PATENT GMBH, priority 2016, dated 2024).

Molecules are shown by their SMILES. pIC50: −log10 of the molar value. Where a name gives a salt, the structure may show the parent alone.

One experiment deals with T1, c-Kit(V654A) (Homo sapiens, UniProt P10721, V654A).
T1 construct: amino acids 544-end containing the V654A mutation; GST (N)
Nature of the experiment: c-Kit(V654A) assay. The format is biochemical. The conditions noted are these: recombinant human c-Kit aa 544-end, 200 μM ATP, 1.4E-06 means 1.4×10^−6, read-out: Inhibition (IC50) of c-KIT (V654A). In a few lines: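 Radiometric filter-binding read-out: substrate 33P incorporation counted by scintillation after P30 filtermat washes in 75 mM phosphoric acid and methanol. Enzyme: N-GST recombinant human c-Kit aa 544-end carrying V654A.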

Another experiment deals with T2, PDGFRalpha(V561D) (Homo sapiens, UniProt P16234, V561D).
T2 construct: recombinant human PDGFRalpha, amino acids 550end containing the V561 D mutation; 6His (N)
Nature of the experiment: PDGFRalpha(V561D) assay. Conditions: recombinant human PDGFRalpha aa 550-end, 200 μM ATP, 1.4E-06 means 1.4×10^−6, read-out: Inhibition (IC50) of PDGFRα (V561D). It is filed as biochemical. The method, boiled down: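 Radiometric filter-binding assay: substrate phosphorylation by recombinant N-His-tagged human PDGFRα 550-end V561D was quenched with 3% phosphoric acid after 40 min at room temperature, then counted.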

T1 sequence (P10721 544-976 V654A): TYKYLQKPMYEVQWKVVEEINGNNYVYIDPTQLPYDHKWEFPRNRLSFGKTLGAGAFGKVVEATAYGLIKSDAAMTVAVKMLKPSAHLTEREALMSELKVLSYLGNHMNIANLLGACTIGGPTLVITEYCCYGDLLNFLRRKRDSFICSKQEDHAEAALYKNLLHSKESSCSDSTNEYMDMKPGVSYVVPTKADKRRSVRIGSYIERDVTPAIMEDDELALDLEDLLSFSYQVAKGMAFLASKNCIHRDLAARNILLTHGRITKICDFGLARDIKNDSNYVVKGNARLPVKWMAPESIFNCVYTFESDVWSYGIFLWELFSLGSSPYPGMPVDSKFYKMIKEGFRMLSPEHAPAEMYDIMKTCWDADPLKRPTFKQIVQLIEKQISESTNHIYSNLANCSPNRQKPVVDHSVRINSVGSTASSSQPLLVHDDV
T2 sequence (P16234 550-1089 V561D): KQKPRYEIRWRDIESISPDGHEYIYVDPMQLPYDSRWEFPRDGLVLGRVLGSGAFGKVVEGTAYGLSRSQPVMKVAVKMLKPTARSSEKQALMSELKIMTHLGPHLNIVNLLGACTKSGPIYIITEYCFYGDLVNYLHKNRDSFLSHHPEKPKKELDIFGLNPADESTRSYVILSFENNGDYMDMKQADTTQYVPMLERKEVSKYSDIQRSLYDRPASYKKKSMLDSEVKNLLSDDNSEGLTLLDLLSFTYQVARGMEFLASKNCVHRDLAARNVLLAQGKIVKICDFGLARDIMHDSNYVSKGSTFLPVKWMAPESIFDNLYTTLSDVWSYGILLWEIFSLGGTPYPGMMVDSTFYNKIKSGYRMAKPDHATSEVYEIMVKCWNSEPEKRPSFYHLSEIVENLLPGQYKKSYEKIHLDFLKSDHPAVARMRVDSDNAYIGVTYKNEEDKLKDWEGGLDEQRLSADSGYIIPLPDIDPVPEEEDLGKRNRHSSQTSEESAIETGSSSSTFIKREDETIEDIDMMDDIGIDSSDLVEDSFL

As usually defined, the pIC50 is −log10 of the IC50, conventionally taken in molar units. For the molecule `CNc1ccc(-n2cc(-c3cc4cc(F)ccc4[nH]c3=O)nn2)cc1` [A342, 6-fluoro-3-[1-(4-methylamino-phenyl)-1H-[1,2,3]triazol-4-yl]-1H-quinolin-2-one], the pIC50 on c-Kit(V654A) is 7.60; on PDGFRalpha(V561D) it was 7.44.
For `COC1CCN(C(=O)c2ccc(-n3cc(-c4cc5cc(F)ccc5[nH]c4=O)nn3)cc2)CC1` [A190, 6-fluoro-3-{1-[4-(4-methoxy-piperidine-1-carbonyl)-phenyl]-1H-[1,2,3]triazol-4-yl}-1H-quinolin-2-one] the same measures were 8.01 and 7.19.
On to `COC1CCN(C(=O)c2ccc(-n3cc(-c4cc5cc(F)c(F)cc5[nH]c4=O)nn3)cc2)CC1` [A191, 6,7-difluoro-3-{1-[4-(4-methoxy-piperidine-1-carbonyl)-phenyl]-1H-[1,2,3]triazol-4-yl}-1H-quinolin-2-one], for which the figures for the pIC50 at c-Kit(V654A) and on PDGFRalpha(V561D) were 7.82 and 6.62, respectively.
The matching figures for `CN(C)C1CCN(C(=O)c2ccc(-n3cc(-c4cc5cc(F)c(F)cc5[nH]c4=O)nn3)cc2)CC1` [A171, 3-{1-[4-(4-dimethylamino-piperidine-1-carbonyl)-phenyl]-1H-[1,2,3]triazol-4-yl}-6,7-difluoro-1H-quinolin-2-one]: 7.77 and 6.72.
The matching figures for `CCN(CC)CCNC(=O)c1ccc(-n2cc(-c3cc4cc(F)c(Cl)cc4[nH]c3=O)nn2)cc1` [A188, 4-[4-(7-chloro-6-fluoro-2-oxo-1,2-dihydro-quinolin-3-yl)-[1,2,3]triazol-1-yl]-N-(2-diethylamino-ethyl)-benzamide]: 7.59 and 5.80.
For `N[C@@H]1CCCN(C(=O)c2ccc(-n3cc(-c4cc5cc(F)c(F)cc5[nH]c4=O)nn3)cc2)C1` [A309, 3-{1-[4-((R)-3-amino-piperidine-1-carbonyl)-phenyl]-1H-[1,2,3]triazol-4-yl}-6,7-difluoro-1H-quinolin-2-one hydrochloride], the pIC50 was 7.20 at c-Kit(V654A) and 6.89 at PDGFRalpha(V561D).
Take `CN(C)C1CCN(C(=O)c2ccc(-n3cc(-c4cc5cc(F)ccc5[nH]c4=O)nn3)cc2)C1` (centres unmarked) [A207, 3-{1-[4-(3-dimethylamino-pyrrolidine-1-carbonyl)-phenyl]-1H-[1,2,3]triazol-4-yl}-6-fluoro-1H-quinolin-2-one]: the negative-log IC50 (pIC50) is 7.28 at c-Kit(V654A) and 6.51 on PDGFRalpha(V561D).
For `O=c1[nH]c2ccc(F)cc2cc1-c1cn(-c2ccc(OCCC3CCNCC3)cc2)nn1` [A133, 6-fluoro-3-{1-[4-(2-piperidin-4-yl-ethoxy)-phenyl]-1H-[1,2,3]triazol-4-yl}-1H-quinolin-2-one] the same measures were 7.96 and 8.19.
Consider `COC[C@H]1CC[C@H](COC)N1C(=O)c1ccc(-n2cc(-c3cc4cc(F)c(F)cc4[nH]c3=O)nn2)cc1` [A220, 3-{1-[4-((2R,5R)-2,5-bis-methoxymethyl-pyrrolidine-1-carbonyl)-phenyl]-1H-[1,2,3]triazol-4-yl}-6,7-difluoro-1H-quinolin-2-one], for which the pIC50 at c-Kit(V654A) is 6.01; on PDGFRalpha(V561D), 6.30.
The matching figures for `O=c1[nH]c2ccc(F)cc2cc1-c1cn(-c2ccc(S(=O)(=O)N3CCNCC3)cc2)nn1` [A129, 6-fluoro-3-{1-[4-(piperazine-1-sulfonyl)-phenyl]-1H-[1,2,3]triazol-4-yl}-1H-quinolin-2-one]: 7.89 and 7.32.
The matching figures for `COc1cc(-n2cc(-c3cc4ccccc4[nH]c3=O)nn2)cc(OC)c1OC` [A38, 3-[1-(3,4,5-trimethoxy-phenyl)-1H-[1,2,3]triazol-4-yl]-1H-quinolin-2-one]: 5.49 and 6.24.
The matching figures for `CC(=O)N1C[C@@H]2[C@H](C1)[C@H]2NC(=O)c1ccc(-n2cc(-c3cc4cc(F)ccc4[nH]c3=O)nn2)cc1` [A240, N-(3-acetyl-3-aza-bicyclo[3.1.0]hex-6-yl)-4-[4-(6-fluoro-2-oxo-1,2-dihydro-quinolin-3-yl)-[1,2,3]triazol-1-yl]-benzamide]: 6.89 and 6.60.
On to `CO[C@H]1CN(C(=O)c2ccc(-n3cc(-c4cc5cc(F)ccc5[nH]c4=O)nn3)cc2)C[C@@H]1OC` [A264, 3-{1-[4-((3S,4S)-3,4-dimethoxy-pyrrolidine-1-carbonyl)-phenyl]-1H-[1,2,3]triazol-4-yl}-6-fluoro-1H-quinolin-2-one], for which the pIC50 on c-Kit(V654A) was 7.12; at PDGFRalpha(V561D), 8.92.
The matching figures for `O=C(c1ccc(-n2cc(-c3cc4cc(F)ccc4[nH]c3=O)nn2)cc1)N1CCC[C@H]1CO` [A197, 6-fluoro-3-{1-[4-((S)-2-hydroxymethyl-pyrrolidine-1-carbonyl)-phenyl]-1H-[1,2,3]triazol-4-yl}-1H-quinolin-2-one]: 7.55 and 7.49.
Turning to `CN1CCN(C(=O)c2ccc(-n3cc(-c4cc5ccc(Cl)cc5[nH]c4=O)nn3)cc2)CC1` [A154, 7-chloro-3-{1-[4-(4-methyl-piperazine-1-carbonyl)-phenyl]-1H-[1,2,3]triazol-4-yl}-1H-quinolin-2-one], the pIC50 is 7.96 on c-Kit(V654A) and 8.52 at PDGFRalpha(V561D).
The matching figures for `CO[C@@H]1CCCN(C(=O)c2ccc(-n3cc(-c4cc5cc(F)c(F)cc5[nH]c4=O)nn3)cc2)C1` [A192, 6,7-difluoro-3-{1-[4-((R)-3-methoxy-piperidine-1-carbonyl)-phenyl]-1H-[1,2,3]triazol-4-yl}-1H-quinolin-2-one]: 6.64 and 6.70.
The matching figures for `CO[C@@H]1CN(C(=O)c2ccc(-n3cc(-c4cc5cc(F)ccc5[nH]c4=O)nn3)cc2)C[C@H]1OC` [A263, 3-{1-[4-((3R,4R)-3,4-dimethoxy-pyrrolidine-1-carbonyl)-phenyl]-1H-[1,2,3]triazol-4-yl}-6-fluoro-1H-quinolin-2-one]: 7.03 and 9.04.
For `O=C(c1ccc(-n2cc(-c3cc4cnccc4[nH]c3=O)nn2)cc1)N1CCOCC1` [A41, 3-{1-[4-(morpholine-4-carbonyl)-phenyl]-1H-[1,2,3]triazol-4-yl}-1H-[1,6]naphthyridin-2-one] the same measures were 6.62 and 7.36.
For the molecule `O=C(c1ccc(-n2cc(-c3cc4cc(Cl)ccc4[nH]c3=O)nn2)cc1)N1CCC(N2CCC(O)CC2)C1` (centres unmarked) [A249, 6-chloro-3-(1-{4-[3-(4-hydroxy-piperidin-1-yl)-pyrrolidine-1-carbonyl]-phenyl}-1H-[1,2,3]triazol-4-yl)-1H-quinolin-2-one], the negative logarithm of the IC50 (pIC50) on c-Kit(V654A) is 7.46; at PDGFRalpha(V561D) it was 6.59.
The matching figures for `N[C@@H]1CCN(C(=O)c2ccc(-n3cc(-c4cc5cc(F)ccc5[nH]c4=O)nn3)cc2)C1` [A313, 3-{1-[4-((R)-3-amino-pyrrolidine-1-carbonyl)-phenyl]-1H-[1,2,3]triazol-4-yl}-6-fluoro-1H-quinolin-2-one hydrochloride]: 7.59 and 6.48.
For `COCCO[C@@H]1CCN(C(=O)c2ccc(-n3cc(-c4cc5cc(F)ccc5[nH]c4=O)cn3)cc2)C1` [A261, 6-fluoro-3-(1-{4-[(R)-3-(2-methoxy-ethoxy)-pyrrolidine-1-carbonyl]-phenyl}-1H-pyrazol-4-yl)-1H-quinolin-2-one] the same measures were 7.36 and 7.43.
For `CN(C)C[C@H]1CCCN1C(=O)c1ccc(-n2cc(-c3cc4cc(F)ccc4[nH]c3=O)nn2)cc1` [A321, 3-{1-[4-((R)-2-dimethylaminomethyl-pyrrolidine-1-carbonyl)-phenyl]-1H-[1,2,3]triazol-4-yl}-6-fluoro-1H-quinolin-2-one], the pIC50 is 7.36 on c-Kit(V654A) and 6.43 at PDGFRalpha(V561D).
Regarding `COc1ccc(-n2cc(-c3cc4ccccc4[nH]c3=O)nn2)cc1` [A10, 3-[1-(4-methoxy-phenyl)-1H-[1,2,3]triazol-4-yl]-1H-quinolin-2-one], the values for the pIC50 at c-Kit(V654A) and on PDGFRalpha(V561D) were 7.09 and 7.49, respectively.
The matching figures for `O=C(NC1COC1)c1ccc(-n2cc(-c3cc4cc(F)ccc4[nH]c3=O)nn2)cc1` [A232, 4-[4-(6-fluoro-2-oxo-1,2-dihydro-quinolin-3-yl)-[1,2,3]triazol-1-yl]-N-oxetan-3-yl-benzamide]: 6.80 and 6.01.
For `CN1CCN(C(=O)C2CCCN2C(=O)c2ccc(-n3cc(-c4cc5cc(F)ccc5[nH]c4=O)nn3)cc2)CC1` (centres unmarked) [A281, 6-fluoro-3-(1-{4-[2-(4-methyl-piperazine-1-carbonyl)-pyrrolidine-1-carbonyl]-phenyl}-1H-[1,2,3]triazol-4-yl)-1H-quinolin-2-one], the figures for the pIC50 on c-Kit(V654A) and on PDGFRalpha(V561D) were 7.24 and 8.00, respectively.
For `O=C(c1ccc(-n2cc(-c3cc4cc(F)ccc4[nH]c3=O)nn2)cc1)N1CCCC2(COC2)C1` [A228, 6-fluoro-3-{1-[4-(2-oxa-6-aza-spiro[3.5]nonane-6-carbonyl)-phenyl]-1H-[1,2,3]triazol-4-yl}-1H-quinolin-2-one] the same measures were 7.13 and 6.52.
With `CC(=O)N(C)c1ccc(-n2cc(-c3cc4cc(F)c(F)cc4[nH]c3=O)nn2)cc1` [A352, N-{4-[4-(6,7-difluoro-2-oxo-1,2-dihydro-quinolin-3-yl)-[1,2,3]triazol-1-yl]-phenyl}-N-methyl-acetamide], the pIC50 at c-Kit(V654A) was 6.59; at PDGFRalpha(V561D), 6.36.
For `CN(C(=O)C1CCOCC1)c1ccc(-n2cc(-c3cc4cc(F)ccc4[nH]c3=O)nn2)cc1` [A345, tetrahydro-pyran-4-carboxylic acid {4-[4-(6-fluoro-2-oxo-1,2-dihydro-quinolin-3-yl)-[1,2,3]triazol-111]-phenyl}-methyl-amide] the same measures were 7.92 and 5.82.
